The values that follow come from patent US9421209B2, “Kinase modulators” (Rhizen Pharmaceuticals SA, priority 2009, dated 2016).

SMILES strings stand for the structures.

For series [1], the target named is P110 δ/Pi3K δ (Homo sapiens, UniProt O00329). The experiment in a line: Fluorescent (HTRF) determination of PI3K enzyme activity, δ isoform. It is filed as biochemical. Details: inhibition: dose or concentration left out as unconfirmed. Put shortly: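 IC50 fitted from percent inhibition relative to blank and enzyme-only wells. Human PI3Kδ converts PIP2 to PIP3 after addition of 400 μM ATP solution, 30 min at room temperature. Product read by time-resolved FRET after stop and 6–18 h dark incubation with detection reagents.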
P110 δ/Pi3K δ, sequence (O00329 whole entry, canonical isoform): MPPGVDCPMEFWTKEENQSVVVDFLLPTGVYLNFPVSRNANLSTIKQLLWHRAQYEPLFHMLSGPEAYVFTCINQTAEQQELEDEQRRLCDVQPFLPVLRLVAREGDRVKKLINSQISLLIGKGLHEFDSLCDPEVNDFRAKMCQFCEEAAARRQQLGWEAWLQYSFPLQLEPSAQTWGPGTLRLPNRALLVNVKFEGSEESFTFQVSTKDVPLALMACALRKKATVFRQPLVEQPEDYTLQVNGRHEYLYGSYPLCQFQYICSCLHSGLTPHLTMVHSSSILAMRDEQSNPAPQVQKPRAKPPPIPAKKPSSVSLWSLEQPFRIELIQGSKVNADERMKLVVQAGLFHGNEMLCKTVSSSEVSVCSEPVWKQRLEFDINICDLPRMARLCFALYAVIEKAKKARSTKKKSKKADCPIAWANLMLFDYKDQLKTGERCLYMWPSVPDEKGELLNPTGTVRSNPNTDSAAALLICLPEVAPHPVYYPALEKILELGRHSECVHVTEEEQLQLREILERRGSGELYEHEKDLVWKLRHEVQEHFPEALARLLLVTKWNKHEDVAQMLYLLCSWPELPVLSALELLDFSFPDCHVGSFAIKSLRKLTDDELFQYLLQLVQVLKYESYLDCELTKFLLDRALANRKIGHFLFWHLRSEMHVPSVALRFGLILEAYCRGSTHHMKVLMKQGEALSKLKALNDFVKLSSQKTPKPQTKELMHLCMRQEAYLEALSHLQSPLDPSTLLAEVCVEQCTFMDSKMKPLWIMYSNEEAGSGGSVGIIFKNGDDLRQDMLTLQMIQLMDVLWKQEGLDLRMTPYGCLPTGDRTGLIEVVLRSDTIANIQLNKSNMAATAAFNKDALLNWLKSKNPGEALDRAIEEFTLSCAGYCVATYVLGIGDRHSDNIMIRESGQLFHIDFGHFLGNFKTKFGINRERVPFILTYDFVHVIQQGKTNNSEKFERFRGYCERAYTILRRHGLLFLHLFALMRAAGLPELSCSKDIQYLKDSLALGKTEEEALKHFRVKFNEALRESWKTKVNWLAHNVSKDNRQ
P110 δ/Pi3K δ, sequence (P27986 whole entry partner, canonical isoform): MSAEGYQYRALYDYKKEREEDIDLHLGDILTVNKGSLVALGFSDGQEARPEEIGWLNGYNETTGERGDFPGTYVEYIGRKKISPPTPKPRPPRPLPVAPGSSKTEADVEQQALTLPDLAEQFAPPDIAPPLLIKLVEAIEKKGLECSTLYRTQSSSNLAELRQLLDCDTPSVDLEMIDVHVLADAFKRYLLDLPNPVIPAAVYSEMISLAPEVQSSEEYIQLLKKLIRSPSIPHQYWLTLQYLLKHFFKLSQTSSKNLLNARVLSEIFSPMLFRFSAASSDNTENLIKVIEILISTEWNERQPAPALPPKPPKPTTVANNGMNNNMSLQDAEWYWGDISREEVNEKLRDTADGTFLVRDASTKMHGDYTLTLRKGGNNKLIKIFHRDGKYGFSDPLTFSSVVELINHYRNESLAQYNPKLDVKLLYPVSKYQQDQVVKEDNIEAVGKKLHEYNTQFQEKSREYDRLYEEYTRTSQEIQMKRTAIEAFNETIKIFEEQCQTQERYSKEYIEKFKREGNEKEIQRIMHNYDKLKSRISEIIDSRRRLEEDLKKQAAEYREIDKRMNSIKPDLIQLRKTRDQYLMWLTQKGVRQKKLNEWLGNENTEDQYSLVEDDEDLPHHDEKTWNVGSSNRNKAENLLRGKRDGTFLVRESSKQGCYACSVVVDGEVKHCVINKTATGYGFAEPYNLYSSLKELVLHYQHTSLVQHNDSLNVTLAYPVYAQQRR

What is called melting point is the temperature of the solid-liquid transition. As usually defined, the inhibition is the percentage by which the read-out fell short of the control. Turning to `Cc1cccc2c1ncn2Cc1oc2ccc(Br)cc2c(=O)c1-c1ccccc1` [Example 6, 6-Bromo-2-[(4-methyl-1H-benzo[d]imidazol-1-yl)methyl]-3-phenyl-4H-chromen-4-one], the melting point lay within 176 to 179 °C. Moreover, the inhibition at 1 µM in series [1] is < 50%.
The like results for `Cl.O=c1c(-c2ccccc2)c(CN2CCOCC2)oc2ccccc12` [Example 4a, 2-(Morpholinomethyl)-3-phenyl-4H-chromen-4-one hydrochloride] were, in that order, 208 to 209 °C and < 50%.
`CC(c1oc2ccccc2c(=O)c1-c1cccc(F)c1)n1ncc2c(Cl)ncnc21` (centres unmarked) [Example 168, 2-(1-(4-Chloro-1H-pyrazolo[3,4-d]pyrimidin-1-yl)ethyl)-3-(3-fluorophenyl)-4H-chromen-4-one] came in with a melting point of 197 to 201 °C. The inhibition in series [1] is < 50%.
`Nc1cccc(-c2nn(Cc3oc4ccccc4c(=O)c3-c3ccccc3)c3ncnc(N)c23)c1` [Example 91, 2-((4-amino-3-(3-aminophenyl)-1H-pyrazolo[3,4-d]pyrimidin-1-yl)methyl)-3-phenyl-4H-chromen-4-one] returned a melting point of 157 to 159 °C. Moreover, the inhibition in series [1] was < 50%.
For `COc1ccc2oc(Cn3cnc4c(N)ncnc43)c(-c3ccccc3)c(=O)c2c1` [Example 27, 2-((6-Amino-9H-purin-9-yl)methyl)-6-methoxy-3-phenyl-4H-chromen-4-one], the melting point is 197 to 198 °C. For the same compound, in series [1], the inhibition at 1 µM was < 50%.
The like results for `CC(c1oc2ccccc2c(=O)c1-c1ccccc1)n1nc(-c2ccc3cn[nH]c3c2)c2c(N)ncnc21` (centres unmarked) [Example 70, 2-(1-(4-amino-3-(1H-indazol-6-yl)-1H-pyrazolo[3,4-d]pyrimidin-1-yl)ethyl)-3-phenyl-4H-chromen-4-one] were, in that order, 176 to 178 °C and 50 to 100%.
In turn, `CC(c1oc2ccccc2c(=O)c1-c1cccc(F)c1)n1ccc2ncnc(Cl)c21` (centres unmarked) [Example 169, 2-(1-(4-Chloro-5H-pyrrolo[3,2-d]pyrimidin-5-yl)ethyl)-3-(3-fluorophenyl)-4H-chromen-4-one] showed a melting point of 166 to 168 °C. Also, the inhibition in series [1] was < 50%.
Consider `CC(c1oc2ccccc2c(=O)c1-c1cc(F)cc(F)c1)n1cnc2c(N)ncnc21` (centres unmarked) [Example 49, 2-(1-(6-Amino-9H-purin-9-yl)ethyl)-3-(3,5-difluorophenyl)-4H-chromen-4-one], for which the melting point fell in the range of 267 to 269 °C. In series [1], the inhibition at 1 µM is < 50%.
The like results for `COc1cccc(-c2nn(Cc3oc4ccccc4c(=O)c3-c3cccc(F)c3)c3ncnc(N)c23)c1` [Example 54, 2-((4-amino-3-(3-methoxyphenyl)-1H-pyrazolo[3,4-d]pyrimidin-1-yl)methyl)-3-(3-fluorophenyl)-4H-chromen-4-one] were, in that order, 175 to 178 °C and < 50%.
In the case of `CCC(c1oc2ccccc2c(=O)c1-c1ccccc1)n1cnc2c(N)ncnc21` (centres unmarked) [Example 31, 2-(1-(6-Amino-9H-purin-9-yl)propyl)-3-phenyl-4H-chromen-4-one], the melting point lay in the range of 223 to 225 °C. In series [1], this compound had an inhibition at 1 µM of 50 to 100%. In series [1] (read-out: P110 δ/Pi3K δ IC 50 nM), the IC50 lay in the range of 250 to 500 nM.
In the case of `COCc1cccc(-c2nn(C(C)c3oc4ccccc4c(=O)c3-c3cccc(F)c3)c3ncnc(N)c23)c1` (centres unmarked) [Example 161, 2-(1-(4-amino-3-(3-(methoxymethyl)phenyl)-1H-pyrazolo[3,4-d]pyrimidin-1-yl)ethyl)-3-(3-fluorophenyl)-4H-chromen-4-one], the melting point lay within 167 to 170 °C. Moreover, in series [1], the inhibition was < 50%.
`Nc1ncnc2c1ncn2Cc1oc2ccccc2c(=O)c1-c1cccc(F)c1` [Example 89, 2-((6-amino-9H-purin-9-yl)methyl)-3-(3-fluorophenyl)-4H-chromen-4-one] had a melting point of 224 to 227 °C. For the same compound, the inhibition in series [1] is < 50%.
In turn, `CC(c1oc2ccccc2c(=O)c1-c1cccc(F)c1)n1nc(-c2cccc(C(=O)N3CCOCC3)c2)c2c(N)ncnc21` (centres unmarked) [Example 177, 2-(1-(4-amino-3-(3-(morpholine-4-carbonyl)phenyl)-1H-pyrazolo[3,4-d]pyrimidin-1-yl)ethyl)-3-(3-fluorophenyl)-4H-chromen-4-one] gave a melting point of 104 to 106 °C. Besides, the inhibition in series [1] is < 50%.
The compound `C[C@@H](Nc1ncnc2[nH]cnc12)c1oc2ccccc2c(=O)c1-c1cccc(F)c1` [Example 56, (R)-2-(1-(9H-purin-6-ylamino)ethyl)-3-(3-fluorophenyl)-4H-chromen-4-one] had a melting point of 274 to 276 °C. Moreover, the inhibition at 1 µM in series [1] is < 50%.
The like results for `COc1cc(F)cc(-c2nn(Cc3oc4ccccc4c(=O)c3-c3cccc(F)c3)c3ncnc(N)c23)c1` [Example 67, 2-((4-amino-3-(3-fluoro-5-methoxyphenyl)-1H-pyrazolo[3,4-d]pyrimidin-1-yl)methyl)-3-(3-fluorophenyl)-4H-chromen-4-one] were, in that order, 115 to 117 °C and < 50%.
`Nc1ncnc2c1ncn2Cc1oc2ccccc2c(=O)c1-c1ccccc1` [Example 3, 2-[(6-Amino-9H-purin-9-yl)methyl]-3-phenyl-4H-chromen-4-one] showed a melting point of 173 to 175 °C. Also, the inhibition at 1 µM in series [1] is < 50%.
On the same counts, the results for `COc1cccc(-c2nn(Cc3oc4ccccc4c(=O)c3-c3ccccc3)c3ncnc(N)c23)c1` [Example 52, 2-((4-Amino-3-(3-methoxyphenyl)-1H-pyrazolo[3,4-d]pyrimidin-1-yl)methyl)-3-phenyl-4H-chromen-4-one] are 111 to 115 °C and < 50%.
The like results for `CC(c1oc2ccc(F)cc2c(=O)c1-c1ccccc1F)n1cnc2c(N)ncnc21` (centres unmarked) [Example 48, 2-(1-(6-amino-9H-purin-9-yl)ethyl)-6-fluoro-3-(2-fluorophenyl)-4H-chromen-4-one] were, in that order, 245 to 248 °C and < 50%.
On the same counts, the results for `O=c1c(-c2ccccc2)c(CNc2ncnc3[nH]cnc23)oc2ccc(Br)cc12` [Example 25, 2-((9H-purin-6-ylamino)methyl)-6-bromo-3-phenyl-4H-chromen-4-one] are 151 to 154 °C and < 50%.
In turn, `COc1ccc2cc(-c3nn(C(C)c4oc5ccccc5c(=O)c4-c4cccc(F)c4)c4ncnc(N)c34)ccc2c1` (centres unmarked) [Example 172, 2-(1-(4-amino-3-(6-methoxynaphthalen-2-yl)-1H-pyrazolo[3,4-d]pyrimidin-1-yl)ethyl)-3-(3-fluorophenyl)-4H-chromen-4-one] yielded a melting point of 285 to 287 °C. The inhibition in series [1] was < 50%.
Consider `CC(c1oc2ccc(F)cc2c(=O)c1-c1ccccc1)n1cnc2c(N)ncnc21` (centres unmarked) [Example 40, 2-(1-(6-Amino-9H-purin-9-yl)ethyl)-6-fluoro-3-phenyl-4H-chromen-4-one], for which the melting point lay within 264 to 269 °C. Besides, the inhibition at 1 µM in series [1] lay in the range of 50 to 100%.
The like results for `Nc1ncnc2c1cnn2Cc1oc2ccc(Br)cc2c(=O)c1-c1ccccc1` [Example 14, 2-((4-Amino-1H-pyrazolo[3,4-d]pyrimidin-1-yl)methyl)-6-bromo-3-phenyl-4H-chromen-4-one] were, in that order, 236 to 240 °C and < 50%.
In turn, `CC(c1oc2ccccc2c(=O)c1-c1cccc(F)c1)n1nc(-c2cc(O)ccc2Cl)c2c(N)ncnc21` (centres unmarked) [Example 96a, 2-(1-(4-amino-3-(2-chloro-5-hydroxyphenyl)-1H-pyrazolo[3,4-d]pyrimidin-1-yl)ethyl)-3-(3-fluorophenyl)-4H-chromen-4-one] returned a melting point of 192 to 195 °C. Besides, the inhibition in series [1] fell in the range of 50 to 100%.
On to `CC(c1oc2ccccc2c(=O)c1-c1cccc(F)c1)n1nc(-c2cccc(OC(F)(F)F)c2)c2c(N)ncnc21` (centres unmarked) [Example 87, 2-(1-(4-amino-3-(3-(trifluoromethoxy)phenyl)-1H-pyrazolo[3,4-d]pyrimidin-1-yl)ethyl)-3-(3-fluorophenyl)-4H-chromen-4-one], for which the melting point fell in the range of 155 to 157 °C. In series [1], this compound gave an inhibition of 50 to 100%.
For the compound `CC(c1oc2ccccc2c(=O)c1-c1ccc(F)cc1)n1cnc2c(N)ncnc21` (centres unmarked) [Example 39, 2-(1-(6-Amino-9H-purin-9-yl)ethyl)-3-(4-fluorophenyl)-4H-chromen-4-one], the melting point is 210 to 212 °C. For the same compound, the inhibition at 1 µM in series [1] was < 50%.
Turning to `Nc1ncnc2c1c(-c1ccc3cn[nH]c3c1)nn2Cc1oc2ccccc2c(=O)c1-c1ccccc1` [Example 75, 2-((4-amino-3-(1H-indazol-6-yl)-1H-pyrazolo[3,4-d]pyrimidin-1-yl)methyl)-3-phenyl-4H-chromen-4-one], the melting point lay in the range of 140 to 143 °C. Besides, the inhibition at 1 µM in series [1] lay in the range of 50 to 100%.
`C[C@H](Nc1ncnc2[nH]cnc12)c1oc2ccc(Br)cc2c(=O)c1-c1ccccc1` [Example 24, (S)-2-(1-(9H-purin-6-ylamino)ethyl)-6-bromo-3-phenyl-4H-chromen-4-one] yielded a melting point of 151 to 154 °C. The inhibition at 1 µM in series [1] was < 50%.
On the same counts, the results for `Nc1ncnc2c1c(-c1cccc(F)c1)nn2Cc1oc2ccccc2c(=O)c1-c1ccccc1` [Example 63, 2-((4-amino-3-(3-fluorophenyl)-1H-pyrazolo[3,4-d]pyrimidin-1-yl)methyl)-3-phenyl-4H-chromen-4-one] are 244 to 247 °C and < 50%.
Compound `CC(C)Oc1ccc(F)c(-c2nn(C(C)c3oc4ccccc4c(=O)c3-c3cccc(F)c3)c3ncnc(N)c23)c1` (centres unmarked) [Example 132, 2-(1-(4-amino-3-(2-fluoro-5-isopropoxyphenyl)-1H-pyrazolo[3,4-d]pyrimidin-1-yl)ethyl)-3-(3-fluorophenyl)-4H-chromen-4-one] came in with a melting point of 198 to 201 °C. Besides, the inhibition in series [1] is < 50%.
